Laboratory results from patent US10961264B2, “Process for isolating a (thio)phosphoric acid derivative” (BASF SE, priority 2015, dated 2021).

Columns and labels:
[1] = as described in U.S. Pat. No. 8,513,460 B1; cited from earlier work
[2] = Solubility of the (thio)phosphoric acid derivative in process solvents; format: physicochemical

SMILES | dissolution in toluene [1] | solubility in dichloromethane ([2]; dichloromethane, even at higher temperatures of 30° C. to 80° C.) | dissolution in dichloromethane in amounts comparable to NBPT ([2]; dichloromethane, same conditions as NBPT) | dissolution in ethyl acetate ([2]; ethyl acetate, upon moderate heating, precipitates again on cooling to room temperature) | solubility in aromatic solvents such as toluene ([2]; toluene, even at higher temperatures of 30° C. to 80° C.) | dissolution in toluene in amounts comparable to NBPT ([2]; toluene, same conditions as NBPT) | solubility in toluene ([2]; toluene, upon heating the product mixture (work-up of U.S. Pat. No. 8,513,460 B1))
CCCCNP(N)(N)=S [NBPT, N-(n-butyl)thiophosphoric acid triamide] | can be dissolved |  |  |  |  |  | 
CCCNP(N)(N)=S [NPPT, N-(n-propyl)thiophosphoric acid triamide] |  | poor solubility | not possible to dissolve | can be dissolved to a large extent | poor solubility | not possible to dissolve | not sufficiently soluble
